Data reported in PubChem BioAssay (NCI).
Several values for one entry are separate records, joined by “and”; a condition that tells them apart may be missing. Identical values can stand only once.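 Dose response: 5 concentrations. Exposure: 48 h. Format: 96-well plates. Endpoint: linear interpolation; highest concentration if not reached. The concentration for 50% growth inhibition is given as GI50. Definition used: TGI = concentration required for complete inhibition of growth.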

Legend:
Test in all cases: NCI-60 cell line screen, 48 h
786-0 renal = test system: 786-0 renal
SK-MEL-5 melanoma = test system: SK-MEL-5 melanoma
HCT-15 colon = test system: HCT-15 colon
COLO 205 colon = test system: COLO 205 colon
NCI-H460 lung = test system: NCI-H460 lung
SK-MEL-2 melanoma = test system: SK-MEL-2 melanoma
HT29 colon = test system: HT29 colon
U251 CNS = test system: U251 CNS
HL-60(TB) leukemia = test system: HL-60(TB) leukemia
MDA-MB-231 breast = test system: MDA-MB-231 breast
HOP-92 NSCLC = test system: HOP-92 NSCLC
OVCAR-4 ovarian = test system: OVCAR-4 ovarian
BT-549 breast = test system: BT-549 breast
OVCAR-3 ovarian = test system: OVCAR-3 ovarian
K-562 leukemia = test system: K-562 leukemia
SK-MEL-28 melanoma = test system: SK-MEL-28 melanoma
LOX IMVI melanoma = test system: LOX IMVI melanoma
MALME-3M melanoma = test system: MALME-3M melanoma
SR leukemia = test system: SR leukemia
A498 renal = test system: A498 renal
IGROV1 ovarian = test system: IGROV1 ovarian
SF-539 CNS = test system: SF-539 CNS
M14 melanoma = test system: M14 melanoma
SF-295 CNS = test system: SF-295 CNS
NCI-H226 lung = test system: NCI-H226 lung
NCI/ADR-RES ovarian = test system: NCI/ADR-RES ovarian
HS 578T breast = test system: HS 578T breast
PC-3 prostate = test system: PC-3 prostate
NCI-H23 lung = test system: NCI-H23 lung
SK-OV-3 ovarian = test system: SK-OV-3 ovarian
DU-145 prostate = test system: DU-145 prostate
MCF7 breast = test system: MCF7 breast
EKVX NSCLC = test system: EKVX NSCLC
TK-10 renal = test system: TK-10 renal
SN12C renal = test system: SN12C renal
SW-620 colon = test system: SW-620 colon
SNB-19 CNS = test system: SNB-19 CNS
OVCAR-5 ovarian = test system: OVCAR-5 ovarian
HCC-2998 colon = test system: HCC-2998 colon
RPMI-8226 leukemia = test system: RPMI-8226 leukemia
ACHN renal = test system: ACHN renal
UACC-257 melanoma = test system: UACC-257 melanoma
UACC-62 melanoma = test system: UACC-62 melanoma
CAKI-1 renal = test system: CAKI-1 renal
CCRF-CEM leukemia = test system: CCRF-CEM leukemia
MDA-MB-435 = test system: MDA-MB-435
HCT-116 colon = test system: HCT-116 colon
KM12 colon = test system: KM12 colon
OVCAR-8 ovarian = test system: OVCAR-8 ovarian
T-47D breast = test system: T-47D breast
MOLT-4 leukemia = test system: MOLT-4 leukemia
NCI-H522 lung = test system: NCI-H522 lung
UO-31 renal = test system: UO-31 renal
SF-268 CNS = test system: SF-268 CNS
HOP-62 NSCLC = test system: HOP-62 NSCLC
SNB-75 CNS = test system: SNB-75 CNS
A549 NSCLC = test system: A549 NSCLC
RXF 393 renal = test system: RXF 393 renal

COc1ccc(/C=C(/C)[N+](=O)[O-])cc1OC
GI50 (786-0 renal): 1.89 µM and 1.79 µM
TGI (786-0 renal): 3.39 µM and 3.36 µM
GI50 (SK-MEL-5 melanoma): 1.71 µM and 1.9 µM
TGI (SK-MEL-5 melanoma): 3.09 µM and 3.43 µM
GI50 (HCT-15 colon): 2.08 µM and 1.02 µM
TGI (HCT-15 colon): 5.47 µM and 2.67 µM
GI50 (COLO 205 colon): 1.78 µM and 1.5 µM
TGI (COLO 205 colon): 3.28 µM and 3.05 µM
GI50 (NCI-H460 lung): 2.78 µM and 3.14 µM
TGI (NCI-H460 lung): 7.78 µM and 9.48 µM
GI50 (SK-MEL-2 melanoma): 2.39 µM and 1.81 µM
TGI (SK-MEL-2 melanoma): 4.9 µM and 4 µM
GI50 (HT29 colon): 2.62 µM and 1.41 µM
TGI (HT29 colon): 5.92 µM and 4.07 µM
GI50 (U251 CNS): 2.3 µM and 1.67 µM
TGI (U251 CNS): 6.14 µM and 3.14 µM
GI50 (HL-60(TB) leukemia): 2.42 µM and 2.47 µM
TGI (HL-60(TB) leukemia): 5.76 µM and 8.93 µM
GI50 (MDA-MB-231 breast): 1.97 µM and 2.38 µM
TGI (MDA-MB-231 breast): 4.26 µM and 5.02 µM
GI50 (HOP-92 NSCLC): 1.78 µM and 2.48 µM
TGI (HOP-92 NSCLC): 4.52 µM and 5.64 µM
GI50 (OVCAR-4 ovarian): 1.91 µM and 2.27 µM
TGI (OVCAR-4 ovarian): 3.88 µM and 4.77 µM
GI50 (BT-549 breast): 3.74 µM and 2.07 µM
TGI (BT-549 breast): 8.87 µM and 3.92 µM
GI50 (OVCAR-3 ovarian): 1.89 µM and 1.79 µM
TGI (OVCAR-3 ovarian): 3.35 µM and 3.44 µM
GI50 (K-562 leukemia): 1.31 µM and 1.72 µM
TGI (K-562 leukemia): > 100 µM
GI50 (SK-MEL-28 melanoma): 1.76 µM and 1.87 µM
TGI (SK-MEL-28 melanoma): 3.66 µM and 3.6 µM
GI50 (LOX IMVI melanoma): 1.6 µM and 1.15 µM
TGI (LOX IMVI melanoma): 3.21 µM and 3.55 µM
GI50 (MALME-3M melanoma): 1.69 µM and 0.38 µM
TGI (MALME-3M melanoma): 3.89 µM and 1.56 µM
GI50 (SR leukemia): 1.26 µM
TGI (SR leukemia): 7 µM
GI50 (A498 renal): 5.13 µM and 4.73 µM
TGI (A498 renal): 17.2 µM and 16.6 µM
GI50 (IGROV1 ovarian): 2.79 µM and 2.26 µM
TGI (IGROV1 ovarian): 7.75 µM and 5.68 µM
GI50 (SF-539 CNS): 2.08 µM and 2.22 µM
TGI (SF-539 CNS): 3.94 µM and 4.7 µM
GI50 (M14 melanoma): 1.97 µM and 1.69 µM
TGI (M14 melanoma): 3.8 µM and 3.42 µM
GI50 (SF-295 CNS): 17.4 µM and 12.5 µM
TGI (SF-295 CNS): 32.4 µM and 27.1 µM
GI50 (NCI-H226 lung): 5.03 µM and 3.71 µM
TGI (NCI-H226 lung): 9.63 µM and 13.4 µM
GI50 (NCI/ADR-RES ovarian): 2.97 µM and 3.25 µM
TGI (NCI/ADR-RES ovarian): 9.77 µM and 13.9 µM
GI50 (HS 578T breast): 6.2 µM and 5.55 µM
TGI (HS 578T breast): > 100 µM
GI50 (PC-3 prostate): 2.65 µM and 2.78 µM
TGI (PC-3 prostate): 6.34 µM and 6.74 µM
GI50 (NCI-H23 lung): 1.9 µM and 1.98 µM
TGI (NCI-H23 lung): 4.24 µM and 4.6 µM
GI50 (SK-OV-3 ovarian): 14.3 µM and 16.7 µM
TGI (SK-OV-3 ovarian): 27.4 µM and 30.4 µM
GI50 (DU-145 prostate): 2.42 µM and 2.45 µM
TGI (DU-145 prostate): 5.72 µM and 5.67 µM
GI50 (MCF7 breast): 1.23 µM and 1.09 µM
TGI (MCF7 breast): 3.26 µM and 2.57 µM
GI50 (EKVX NSCLC): 10.9 µM and 5.4 µM
TGI (EKVX NSCLC): 28.6 µM and 19.8 µM
GI50 (TK-10 renal): 1.76 µM and 1.32 µM
TGI (TK-10 renal): 3.5 µM and 2.7 µM
GI50 (SN12C renal): 2.35 µM and 2.18 µM
TGI (SN12C renal): 6.07 µM and 5.77 µM
GI50 (SW-620 colon): 1.56 µM and 1.1 µM
TGI (SW-620 colon): 3.04 µM and 2.7 µM
GI50 (SNB-19 CNS): 6.82 µM and 3.16 µM
TGI (SNB-19 CNS): 20 µM and 12.6 µM
GI50 (OVCAR-5 ovarian): 4.12 µM and 5 µM
TGI (OVCAR-5 ovarian): 12.4 µM and 16.1 µM
GI50 (HCC-2998 colon): 1.8 µM and 1.77 µM
TGI (HCC-2998 colon): 3.27 µM and 3.32 µM
GI50 (RPMI-8226 leukemia): 0.971 µM and 1.6 µM
TGI (RPMI-8226 leukemia): 3.43 µM and 5.18 µM
GI50 (ACHN renal): 2.18 µM and 1.46 µM
TGI (ACHN renal): 4.19 µM and 2.82 µM
GI50 (UACC-257 melanoma): 1.56 µM and 0.6 µM
TGI (UACC-257 melanoma): 2.98 µM and 1.92 µM
GI50 (UACC-62 melanoma): 1.78 µM and 1.72 µM
TGI (UACC-62 melanoma): 3.62 µM and 3.89 µM
GI50 (CAKI-1 renal): 1.88 µM and 0.338 µM
TGI (CAKI-1 renal): 4.04 µM and 1.46 µM
GI50 (CCRF-CEM leukemia): 1.96 µM and 0.786 µM
TGI (CCRF-CEM leukemia): 5.31 µM and 5.72 µM
GI50 (MDA-MB-435): 2.17 µM and 2.1 µM
TGI (MDA-MB-435): 5.55 µM and 5.29 µM
GI50 (HCT-116 colon): 1.76 µM and 1.56 µM
TGI (HCT-116 colon): 3.37 µM and 2.98 µM
GI50 (KM12 colon): 3.66 µM and 2.1 µM
TGI (KM12 colon): 9.69 µM and 5.79 µM
GI50 (OVCAR-8 ovarian): 2.62 µM and 3.22 µM
TGI (OVCAR-8 ovarian): 8 µM and 10 µM
GI50 (T-47D breast): 1.54 µM and 1.37 µM
TGI (T-47D breast): 3.29 µM and 3.23 µM
GI50 (MOLT-4 leukemia): 2.94 µM and 3.32 µM
GI50 (NCI-H522 lung): 0.456 µM and 0.48 µM
TGI (NCI-H522 lung): 1.14 µM and 2.26 µM
GI50 (UO-31 renal): 1.74 µM and 1.61 µM
TGI (UO-31 renal): 3.26 µM and 3.23 µM
GI50 (SF-268 CNS): 2.82 µM and 3.61 µM
TGI (SF-268 CNS): 7.13 µM and 13.2 µM
GI50 (HOP-62 NSCLC): 2.03 µM and 4.17 µM
TGI (HOP-62 NSCLC): 4.36 µM and 14.8 µM
GI50 (SNB-75 CNS): 4.71 µM and 3.76 µM
TGI (SNB-75 CNS): 18 µM and 13.9 µM
GI50 (A549 NSCLC): 6.05 µM and 4.13 µM
TGI (A549 NSCLC): 19.7 µM and 17.7 µM
GI50 (RXF 393 renal): 1.7 µM and 1.42 µM
TGI (RXF 393 renal): 3.16 µM and 2.78 µM
